Each structure is given as a SMILES string.

Sequence of CDK12/CycK (Q9NYV4 with tags, fused parts or gaps): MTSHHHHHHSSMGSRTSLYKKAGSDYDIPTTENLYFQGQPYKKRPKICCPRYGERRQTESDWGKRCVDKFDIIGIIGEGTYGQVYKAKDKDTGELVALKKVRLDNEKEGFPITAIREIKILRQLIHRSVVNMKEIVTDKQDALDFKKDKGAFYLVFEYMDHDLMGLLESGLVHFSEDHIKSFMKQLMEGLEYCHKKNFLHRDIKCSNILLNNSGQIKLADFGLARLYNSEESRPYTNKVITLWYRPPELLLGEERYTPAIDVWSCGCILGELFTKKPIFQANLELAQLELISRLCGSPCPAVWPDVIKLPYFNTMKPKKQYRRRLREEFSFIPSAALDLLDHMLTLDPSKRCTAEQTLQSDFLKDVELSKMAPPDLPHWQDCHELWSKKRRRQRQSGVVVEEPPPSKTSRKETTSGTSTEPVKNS
Sequence of CDK12/CycK (O75909 1-300 partner limits assumed): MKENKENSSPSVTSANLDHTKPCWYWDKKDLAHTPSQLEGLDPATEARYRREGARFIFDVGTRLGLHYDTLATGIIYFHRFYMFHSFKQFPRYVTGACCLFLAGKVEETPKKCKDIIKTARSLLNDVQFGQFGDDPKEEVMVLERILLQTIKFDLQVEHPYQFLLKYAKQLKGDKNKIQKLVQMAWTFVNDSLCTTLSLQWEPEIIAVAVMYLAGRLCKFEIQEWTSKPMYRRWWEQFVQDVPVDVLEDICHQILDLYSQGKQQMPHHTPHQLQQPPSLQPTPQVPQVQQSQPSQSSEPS

The assay addresses CDK12/CycK (Homo sapiens, UniProt Q9NYV4). The assay is described as follows: CDK12/CycK high ATP kinase assay (TR-FRET, 2 mM ATP). Type of assay: biochemical. As to conditions: 2 mM ATP (high ATP); median; read-out: CDK12/CyclinK, 2 mM ATP (high ATP), IC50-[mol/l] (median). The gist of the method:
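His-tagged human CDK12/CycK (~0.75 nM) pre-incubated 15 min with compound, then 60 min at 22 °C with 2 mM ATP and 1 µM biotinylated peptide (HEPES pH 7.5, 20 mM MgCl2). EDTA stop; phospho-Ser62 antibody/Eu anti-rabbit and streptavidin-XL665 TR-FRET, 665/620 nm ratio normalised to give IC50.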
On to `Clc1ccccc1-c1nnc(CNc2nc(N3CCOCC3)nc3c(Br)cnn23)[nH]1` [Example 69, 8-bromo-N-{[5-(2-chlorophenyl)-4H-1,2,4-triazol-3-yl]methyl}-2-(morpholin-4-yl)pyrazolo[1,5-a][1,3,5]triazin-4-amine], for which the IC50 was > 5.71 µM.

In the case of `CC1(C)CN(c2nc(NCc3nnc(-c4ccccc4)[nH]3)n3ncc(Br)c3n2)CCO1` [Example 68, 8-bromo-2-(2,2-dimethylmorpholin-4-yl)-N-[(5-phenyl-4H-1,2,4-triazol-3-yl)methyl]pyrazolo[1,5-a][1,3,5]triazin-4-amine], the IC50 came out at 5.52 µM.

Turning to `Brc1cnn2c(NCc3nnc(-c4ccccc4)[nH]3)nc(N3CC4(COC4)C3)nc12` [Example 65, 8-bromo-2-(2-oxa-6-azaspiro[3.3]heptan-6-yl)-N-[(5-phenyl-4H-1,2,4-triazol-3-yl)methyl]pyrazolo[1,5-a][1,3,5]triazin-4-amine], the IC50 was > 5.71 µM.

In the case of `COc1cccc(-c2cnc(CNc3nc(N4CCOCC4)nc4c(Br)cnn34)[nH]2)c1` [Example 80, 8-bromo-N-{[5-(3-methoxyphenyl)-1H-imidazol-2-yl]methyl}-2-(morpholin-4-yl)pyrazolo[1,5-a][1,3,5]triazin-4-amine], the IC50 worked out at 1.18 µM.

`CC(C)c1cnn2c(NCc3nc4ccccc4[nH]3)nc(N3CCN(C)CC3)nc12` [Example 2, N-[(1H-benzimidazol-2-yl)methyl]-2-(4-methylpiperazin-1-yl)-8-(propan-2-yl)pyrazolo[1,5-a][1,3,5]triazin-4-amine]: the IC50 is > 20 µM.

Turning to `FC(F)(F)c1ccccc1-c1cnc(CNc2nc(N3CCOCC3)nc3c(Br)cnn23)[nH]1` [Example 88, 8-bromo-2-(morpholin-4-yl)-N-({5-[2-(trifluoromethyl)phenyl]-1H-imidazol-2-yl}methyl)pyrazolo[1,5-a][1,3,5]triazin-4-amine], the IC50 came to 1.36 µM.

With `CC(C)c1cnn2c(NCc3nc4ccccc4[nH]3)nc(N(C)C)nc12` [Example 3, N^4-[(1H-benzimidazol-2-yl)methyl]-N^2,N^2-dimethyl-8-(propan-2-yl)pyrazolo[1,5-a][1,3,5]triazine-2,4-diamine], the IC50 was > 20 µM.

In the case of `Brc1cnn2c(NCc3nnc(-c4ccccc4)[nH]3)nc(N3CCCC3)nc12` [Example 64, 8-bromo-N-[(5-phenyl-4H-1,2,4-triazol-3-yl)methyl]-2-(pyrrolidin-1-yl)pyrazolo[1,5-a][1,3,5]triazin-4-amine], the IC50 was found to be 5.52 µM.

Consider `OC[C@@H]1CCCCN1c1nc(NCc2nnc(-c3ccccc3)[nH]2)n2ncc(Br)c2n1` [Example 70, [(2S)-1-(8-bromo-4-{[(5-phenyl-4H-1,2,4-triazol-3-yl)methyl]amino}pyrazolo[1,5-a][1,3,5]triazin-2-yl)piperidin-2-yl]methanol], for which the IC50 worked out at 0.621 µM.

Take `Fc1cccc(-c2cnc(CNc3nc(N4CCOCC4)nc4c(Br)cnn34)[nH]2)c1` [Example 79, 8-bromo-N-{[5-(3-fluorophenyl)-1H-imidazol-2-yl]methyl}-2-(morpholin-4-yl)pyrazolo[1,5-a][1,3,5]triazin-4-amine]: the IC50 worked out at 0.566 µM.

As to `COC1CCN(c2nc(NCc3nnc(-c4ccccc4)[nH]3)n3ncc(Br)c3n2)CC1` [Example 76, 8-bromo-2-(4-methoxypiperidin-1-yl)-N-[(5-phenyl-4H-1,2,4-triazol-3-yl)methyl]pyrazolo[1,5-a][1,3,5]triazin-4-amine], the IC50 is > 5.33 µM.

For the molecule `Brc1cnn2c(NCc3ncc(-c4cccnc4)[nH]3)nc(N3CCOCC3)nc12` [Example 84, 8-bromo-2-(morpholin-4-yl)-N-{[5-(pyridin-3-yl)-1H-imidazol-2-yl]methyl}pyrazolo[1,5-a][1,3,5]triazin-4-amine], the IC50 is 2.09 µM.

Consider `FC(F)(F)c1cccc(-c2cnc(CNc3nc(N4CCOCC4)nc4c(Br)cnn34)[nH]2)c1` [Example 83, 8-bromo-2-(morpholin-4-yl)-N-({5-[3-(trifluoromethyl)phenyl]-1H-imidazol-2-yl}methyl)pyrazolo[1,5-a][1,3,5]triazin-4-amine], for which the IC50 worked out at 1.04 µM.

For `Clc1cccc(-c2cnc(CNc3nc(N4CCOCC4)nc4c(Br)cnn34)[nH]2)c1` [Example 81, 8-bromo-N-{[5-(3-chlorophenyl)-1H-imidazol-2-yl]methyl}-2-(morpholin-4-yl)pyrazolo[1,5-a][1,3,5]triazin-4-amine], the IC50 is 0.765 µM.

On to `Fc1ccccc1-c1nnc(CNc2nc(N3CCOCC3)nc3c(Br)cnn23)[nH]1` [Example 75, 8-bromo-N-{[5-(2-fluorophenyl)-4H-1,2,4-triazol-3-yl]methyl}-2-(morpholin-4-yl)pyrazolo[1,5-a][1,3,5]triazin-4-amine], for which the IC50 is > 3.77 µM.

`COC(=O)C1CCN(c2nc(NCc3nnc(-c4ccccc4)[nH]3)n3ncc(Br)c3n2)CC1` [Example 77, methyl 1-(8-bromo-4-{[(5-phenyl-4H-1,2,4-triazol-3-yl)methyl]amino}pyrazolo[1,5-a][1,3,5]triazin-2-yl)piperidine-4-carboxylate]: the IC50 is 10.1 µM.

`c1ccc(-c2nnc(CNc3nc(N4CCOCC4)nc4c(C5CC5)cnn34)[nH]2)cc1` [Example 93, 8-cyclopropyl-2-(morpholin-4-yl)-N-[(5-phenyl-4H-1,2,4-triazol-3-yl)methyl]pyrazolo[1,5-a][1,3,5]triazin-4-amine]: the IC50 was determined as 2.7 µM.

Turning to `FC(F)(F)Oc1ccccc1-c1cnc(CNc2nc(N3CCOCC3)nc3c(Br)cnn23)[nH]1` [Example 89, 8-bromo-2-(morpholin-4-yl)-N-({5-[2-(trifluoromethoxy)phenyl]-1H-imidazol-2-yl}methyl)pyrazolo[1,5-a][1,3,5]triazin-4-amine], the IC50 worked out at 10.7 µM.

With `Clc1ccc(-c2cnc(CNc3nc(N4CCOCC4)nc4c(Br)cnn34)[nH]2)cc1` [Example 72, 8-bromo-N-{[5-(4-chlorophenyl)-1H-imidazol-2-yl]methyl}-2-(morpholin-4-yl)pyrazolo[1,5-a][1,3,5]triazin-4-amine], the IC50 was determined as 0.547 µM.

`COc1ccccc1-c1cnc(CNc2nc(N3CCOCC3)nc3c(Br)cnn23)[nH]1` [Example 87, 8-bromo-N-{[5-(2-methoxyphenyl)-1H-imidazol-2-yl]methyl}-2-(morpholin-4-yl)pyrazolo[1,5-a][1,3,5]triazin-4-amine]: the IC50 was 2.59 µM.

Consider `FC(F)(F)Oc1ccccc1-c1nnc(CNc2nc(N3CCOCC3)nc3c(Br)cnn23)[nH]1` [Example 74, 8-bromo-2-(morpholin-4-yl)-N-({5-[2-(trifluoromethoxy)phenyl]-4H-1,2,4-triazol-3-yl}methyl)pyrazolo[1,5-a][1,3,5]triazin-4-amine], for which the IC50 was > 20 µM.

For `COC1CCN(c2nc(NCc3nc4ccccc4[nH]3)n3ncc(Br)c3n2)CC1` [Example 62, N-[(1H-benzimidazol-2-yl)methyl]-8-bromo-2-(4-methoxypiperidin-1-yl)pyrazolo[1,5-a][1,3,5]triazin-4-amine], the IC50 was determined as 5.69 µM.

Take `C[C@@H]1CN(c2nc(NCc3nc4ccccc4[nH]3)n3ncc(Br)c3n2)C[C@H](C)O1` [Example 73, N-[(1H-benzimidazol-2-yl)methyl]-8-bromo-2-[(2R,6S)-2,6-dimethylmorpholin-4-yl]pyrazolo[1,5-a][1,3,5]triazin-4-amine]: the IC50 was 0.664 µM.

Turning to `Cc1ccccc1-c1cnc(CNc2nc(N3CCOCC3)nc3c(Br)cnn23)[nH]1` [Example 85, 8-bromo-N-{[5-(2-methylphenyl)-1H-imidazol-2-yl]methyl}-2-(morpholin-4-yl)pyrazolo[1,5-a][1,3,5]triazin-4-amine], the IC50 turned out to be 6.33 µM.

In the case of `COC(=O)C1CCN(c2nc(NCc3nc4ccccc4[nH]3)n3ncc(Br)c3n2)CC1` [Example 63, methyl 1-(4-{[(1H-benzimidazol-2-yl)methyl]amino}-8-bromopyrazolo[1,5-a][1,3,5]triazin-2-yl)piperidine-4-carboxylate], the IC50 was 11.5 µM.

In the case of `OC[C@H]1CCCCN1c1nc(NCc2nnc(-c3ccccc3)[nH]2)n2ncc(Br)c2n1` [Example 71, [(2R)-1-(8-bromo-4-{[(5-phenyl-4H-1,2,4-triazol-3-yl)methyl]amino}pyrazolo[1,5-a][1,3,5]triazin-2-yl)piperidin-2-yl]methanol], the IC50 was 4.33 µM.

With `OCC1COCCN1c1nc(NCc2nc3ccccc3[nH]2)n2ncc(Br)c2n1` (stereo not shown) [Example 67, (4-{4-[(1H-benzimidazol-2-ylmethyl)amino]-8-bromopyrazolo[1,5-a][1,3,5]triazin-2-yl}morpholin-3-yl)methanol], the IC50 is 2.74 µM.

In the case of `Fc1cccc(-c2cnn3c(NCc4nc5ccccc5[nH]4)nc(N4CCOCC4)nc23)c1` [Example 91, N-[(1H-benzimidazol-2-yl)methyl]-8-(3-fluorophenyl)-2-(morpholin-4-yl)pyrazolo[1,5-a][1,3,5]triazin-4-amine], the IC50 is > 57.1 µM.

Turning to `FC(F)(F)Oc1cccc(-c2cnc(CNc3nc(N4CCOCC4)nc4c(Br)cnn34)[nH]2)c1` [Example 82, 8-bromo-2-(morpholin-4-yl)-N-({5-[3-(trifluoromethoxy)phenyl]-1H-imidazol-2-yl}methyl)pyrazolo[1,5-a][1,3,5]triazin-4-amine], the IC50 came to 0.916 µM.

As for `c1ccc2[nH]c(CNc3nc(N4CCOCC4)nc4c(C5CC5)cnn34)nc2c1` [Example 92, N-[(1H-benzimidazol-2-yl)methyl]-8-cyclopropyl-2-(morpholin-4-yl)pyrazolo[1,5-a][1,3,5]triazin-4-amine], the IC50 worked out at 3.25 µM.

Regarding `Fc1ccc(-c2cnc(CNc3nc(N4CCOCC4)nc4c(Br)cnn34)[nH]2)cc1` [Example 66, 8-bromo-N-{[5-(4-fluorophenyl)-1H-imidazol-2-yl]methyl}-2-(morpholin-4-yl)pyrazolo[1,5-a][1,3,5]triazin-4-amine], the IC50 amounted to 1.02 µM.

These data come from US20230117034A1, “PYRAZOLOTRIAZINES” (Bayer Aktiengesellschaft, priority 2019, published 2023).
